What was measured:
[1] = system: B/Malaysia/2506/2004 (B-Mal); type: cell-based, influenza virus
A/Hamburg/05/2009 (H1N1) = type: cell-based, influenza virus
A/Hessen/1/2003 (H3N2) = type: cell-based, influenza virus
[2] = system: panel of seven bacterial strains; experiment: Antibacterial growth assay (OD600), statements on the whole panel; type: cell-based; conditions: growth after 48 h
[3] = system: Pseudomonas aeruginosa DSM 1117; experiment: Antibacterial growth assay (OD600); conditions: OD600, medium = 100, MH II broth, 37 °C, peptide 200 µM mixed 50 µL + 50 µL with bacteria, Figure 7: 48 h; for Bacterial growth relative to medium, P. aeruginosa (1117), replicate 1: replicate column 1; for Bacterial growth relative to medium, P. aeruginosa (1117), replicate 2: replicate column 2; for Bacterial growth relative to medium, P. aeruginosa (1117), replicate 3: replicate column 3
[4] = system: Pseudomonas aeruginosa DSM 50071; experiment: Antibacterial growth assay (OD600); conditions: OD600, medium = 100, MH II broth, 37 °C, peptide 200 µM mixed 50 µL + 50 µL with bacteria, Figure 7: 48 h; for Bacterial growth relative to medium, P. aeruginosa (50071), replicate 1: replicate column 1; for Bacterial growth relative to medium, P. aeruginosa (50071), replicate 2: replicate column 2; for Bacterial growth relative to medium, P. aeruginosa (50071), replicate 3: replicate column 3
[5] = system: Micrococcus luteus DSM 20030; experiment: Antibacterial growth assay (OD600); conditions: for Bacterial growth relative to medium, M. luteus, replicate 1 / Bacterial growth relative to medium, M. luteus, replicate 2 / Bacterial growth relative to medium, M. luteus, replicate 3: OD600, medium = 100, MH II broth, 37 °C, peptide 200 µM mixed 50 µL + 50 µL with bacteria, Figure 7: 48 h; for Bacterial growth relative to medium, M. luteus, replicate 1: replicate column 1; for Bacterial growth relative to medium, M. luteus, replicate 2: replicate column 2; for Bacterial growth relative to medium, M. luteus, replicate 3: replicate column 3
Procedure: (§1) Cryo-conserved cultures of selected bacterial strains (Table 4) were transferred to Tryptic Soy Agar (TSA) plates (Carl Roth) with a sterile inoculation loop, sealed with Parafilm (BEMIS, Neenah, WI, USA), and incubated for 1–2 days at 37 °C depending on growth. Single colonies were picked and transferred into 2–3 mL of the Mueller–Hinton II (MH II) broth (BD, Heidelberg, Germany). The bacteria were cultivated overnight, subcultured on fresh medium and grown for 3–4 h before testing at 37 °C, with shaking at 180 rpm. We measured the optical density at 600 nm (OD600) of 1 mL of the bacterial suspensions in polystyrene cuvettes (SARSTED, Nümbrecht, Germany) using an Ultrospec 10 spectrophotometer (Biochrome, Cambridge, UK). We then diluted them with the MH II medium to the preferred OD600 (Table 2). The peptides were dissolved in DMSO to generate 10 mmol/L stocks and diluted with the MH II medium to 200 µM before the assay. We used 10 µg/mL (~40 µg/mL for S. epidermidis) gentamicin and colistin (Sigma-Aldrich, Taufkirchen, Germany), DMSO and the medium only as controls. The bacteria were transferred to 96-multiwell plates with a final volume of 100 µL per well (50 µL bacterial suspension, and 50 µL test peptide). The OD600 was measured at 0, 24 and 48 h using a BioTek Eon microplate reader followed by analysis with Gen5 v2.09.

[6] = system: Staphylococcus aureus DSM 2569; experiment: Antibacterial growth assay (OD600); conditions: for Bacterial growth relative to medium, S. aureus, replicate 1 / Bacterial growth relative to medium, S. aureus, replicate 2 / Bacterial growth relative to medium, S. aureus, replicate 3: OD600, medium = 100, MH II broth, 37 °C, peptide 200 µM mixed 50 µL + 50 µL with bacteria, Figure 7: 48 h; for Bacterial growth relative to medium, S. aureus, replicate 1: replicate column 1; for Bacterial growth relative to medium, S. aureus, replicate 2: replicate column 2; for Bacterial growth relative to medium, S. aureus, replicate 3: replicate column 3
Procedure: as §1

[7] = system: Escherichia coli BL21(DE3); experiment: Antibacterial growth assay (OD600); conditions: OD600, medium = 100, MH II broth, 37 °C, peptide 200 µM mixed 50 µL + 50 µL with bacteria, Figure 7: 48 h; for Bacterial growth relative to medium, E. coli, replicate 1: replicate column 1; for Bacterial growth relative to medium, E. coli, replicate 2: replicate column 2; for Bacterial growth relative to medium, E. coli, replicate 3: replicate column 3
[8] = system: Listeria monocytogenes DSM 20600; experiment: Antibacterial growth assay (OD600); conditions: OD600, medium = 100, MH II broth, 37 °C, peptide 200 µM mixed 50 µL + 50 µL with bacteria, Figure 7: 48 h; for Bacterial growth relative to medium, L. monocytogenes, replicate 1: replicate column 1; for Bacterial growth relative to medium, L. monocytogenes, replicate 2: replicate column 2; for Bacterial growth relative to medium, L. monocytogenes, replicate 3: replicate column 3
[9] = system: Staphylococcus epidermidis DSM 28319; experiment: Antibacterial growth assay (OD600); conditions: for Bacterial growth relative to medium, S. epidermidis, replicate 1 / Bacterial growth relative to medium, S. epidermidis, replicate 2 / Bacterial growth relative to medium, S. epidermidis, replicate 3: OD600, medium = 100, MH II broth, 37 °C, peptide 200 µM mixed 50 µL + 50 µL with bacteria, Figure 7: 48 h; for Bacterial growth relative to medium, S. epidermidis, replicate 1: replicate column 1; for Bacterial growth relative to medium, S. epidermidis, replicate 2: replicate column 2; for Bacterial growth relative to medium, S. epidermidis, replicate 3: replicate column 3
Procedure: as §1

G. mellonella larvae = experiment: Insecticidal activity by injection into larvae; type: in vivo, Galleria mellonella; conditions: 50 ng peptide injected, 3 cohorts of 10 larvae, survival monitored for 5 days
Procedure: Insecticidal activity was determined using fourth and fifth instar G. mellonella larvae (L4/L5) obtained from Fauna Topics Zoobedarf Zucht und Handels GmbH (Marbach am Neckar, Germany). Because spider venom is injected via chelicerae, we opted for an injection-based assay to reflect the natural process of envenomation as described earlier. The peptides were dissolved in a 1:1 mixture of DMSO and water to a final concentration of 10 mmol/L. We injected 50 ng of each peptide into the pseudopodium using Omnican-F, 0.30 × 12 mm/G 30 × 1/2”, a 1 mL syringe adjusted to a WPI manual microsyringe injector setup. Injections with water, DMSO/water (1:1) and ethanol (90%) were used as controls, alongside untreated specimens. Insecticidal activity screenings were performed in cohorts of 10 larvae with 3 replicates (30 specimens per treatment or control). […] Survival was monitored every 24 h for 5 days. Mortality was calculated based on the ratio of dead to injected specimens.

Sequence: SLLGLLDVVKNTVGQTGLL [LS-AMP-A8]
- Viability of infected cells relative to aprotinin, Replicate 1 [1]: 0.03065
- Viability of infected cells relative to aprotinin, Replicate 2 [1]: 0.0169
- Viability of infected cells relative to aprotinin, Replicate 3 [1]: 0.06181
- Viability of infected cells relative to aprotinin, Replicate 1 (A/Hamburg/05/2009 (H1N1)): 0.02555
- Viability of infected cells relative to aprotinin, Replicate 2 (A/Hamburg/05/2009 (H1N1)): 0.01502
- Viability of infected cells relative to aprotinin, Replicate 3 (A/Hamburg/05/2009 (H1N1)): 0.01283
- Viability of infected cells relative to aprotinin, Replicate 1 (A/Hessen/1/2003 (H3N2)): 0.08185
- Viability of infected cells relative to aprotinin, Replicate 2 (A/Hessen/1/2003 (H3N2)): 0.1031
- Viability of infected cells relative to aprotinin, Replicate 3 (A/Hessen/1/2003 (H3N2)): 0.0008759
- Antibacterial activity over the panel (in words) [2]: inhibited the growth of most of the bacteria except two
- Bacterial growth relative to medium, P. aeruginosa (1117), replicate 1 [3]: 76.1322
- Bacterial growth relative to medium, P. aeruginosa (1117), replicate 2 [3]: 81.7612
- Bacterial growth relative to medium, P. aeruginosa (1117), replicate 3 [3]: 75.3667
- Bacterial growth relative to medium, P. aeruginosa (50071), replicate 1 [4]: 99.79
- Bacterial growth relative to medium, P. aeruginosa (50071), replicate 2 [4]: 113.132
- Bacterial growth relative to medium, P. aeruginosa (50071), replicate 3 [4]: 91.0686
- Antibacterial activity (in words) ([5]; M. luteus DSM 20030, growth after 48 h): no activity
- Bacterial growth relative to medium, M. luteus, replicate 1 [5]: 72.2222
- Bacterial growth relative to medium, M. luteus, replicate 2 [5]: 103.716
- Bacterial growth relative to medium, M. luteus, replicate 3 [5]: 73.0273
- Bacterial growth relative to medium, S. aureus, replicate 1 [6]: 67.0732
- Bacterial growth relative to medium, S. aureus, replicate 2 [6]: 73.4467
- Bacterial growth relative to medium, S. aureus, replicate 3 [6]: 85.2226
- Bacterial growth relative to medium, E. coli, replicate 1 [7]: 91.7388
- Bacterial growth relative to medium, E. coli, replicate 2 [7]: 101.043
- Bacterial growth relative to medium, E. coli, replicate 3 [7]: 53.4577
- Bacterial growth relative to medium, L. monocytogenes, replicate 1 [8]: 57.9391
- Bacterial growth relative to medium, L. monocytogenes, replicate 2 [8]: 71.2645
- Bacterial growth relative to medium, L. monocytogenes, replicate 3 [8]: 69.2971
- Bacterial growth relative to medium, S. epidermidis, replicate 1 [9]: 79.7615
- Bacterial growth relative to medium, S. epidermidis, replicate 2 [9]: 73.3026
- Bacterial growth relative to medium, S. epidermidis, replicate 3 [9]: 77.5582

Sequence: SLLGLLDVVKSKIGQT [LS-AMP-A15]
- Viability of infected cells relative to aprotinin, Replicate 1 [1]: 0.05034
- Viability of infected cells relative to aprotinin, Replicate 2 [1]: 0.05082
- Viability of infected cells relative to aprotinin, Replicate 3 [1]: 0.05878
- Viability of infected cells relative to aprotinin, Replicate 1 (A/Hamburg/05/2009 (H1N1)): 0.04491
- Viability of infected cells relative to aprotinin, Replicate 2 (A/Hamburg/05/2009 (H1N1)): 0.03692
- Viability of infected cells relative to aprotinin, Replicate 3 (A/Hamburg/05/2009 (H1N1)): 0.03514
- Viability of infected cells relative to aprotinin, Replicate 1 (A/Hessen/1/2003 (H3N2)): 0.1635
- Viability of infected cells relative to aprotinin, Replicate 2 (A/Hessen/1/2003 (H3N2)): 0.1644
- Viability of infected cells relative to aprotinin, Replicate 3 (A/Hessen/1/2003 (H3N2)): 0.1569
- Viability of infected cells relative to aprotinin, Replicate 4 (A/Hessen/1/2003 (H3N2); […], replicate 4 (additional internal control)): 0.1576
- Insecticidal effect on larvae (in words) (G. mellonella larvae): Individual dead insects
- Bacterial growth relative to medium, P. aeruginosa (1117), replicate 1 [3]: 80.9004
- Bacterial growth relative to medium, P. aeruginosa (1117), replicate 2 [3]: 77.0275
- Bacterial growth relative to medium, P. aeruginosa (1117), replicate 3 [3]: 69.3765
- Bacterial growth relative to medium, P. aeruginosa (50071), replicate 1 [4]: 101.444
- Bacterial growth relative to medium, P. aeruginosa (50071), replicate 2 [4]: 115.913
- Bacterial growth relative to medium, P. aeruginosa (50071), replicate 3 [4]: 84.6093
- Bacterial growth relative to medium, M. luteus, replicate 1 [5]: 87.1981
- Bacterial growth relative to medium, M. luteus, replicate 2 [5]: 100.338
- Bacterial growth relative to medium, M. luteus, replicate 3 [5]: 54.7585
- Bacterial growth relative to medium, S. aureus, replicate 1 [6]: 62.2914
- Bacterial growth relative to medium, S. aureus, replicate 2 [6]: 63.5709
- Bacterial growth relative to medium, S. aureus, replicate 3 [6]: 94.1265
- Antibacterial activity (in words) ([6]; S. aureus DSM 2569, growth after 48 h): limited activity
- Bacterial growth relative to medium, E. coli, replicate 1 [7]: 103.062
- Bacterial growth relative to medium, E. coli, replicate 2 [7]: 89.9768
- Bacterial growth relative to medium, E. coli, replicate 3 [7]: 48.0425
- Bacterial growth relative to medium, L. monocytogenes, replicate 1 [8]: 129.232
- Bacterial growth relative to medium, L. monocytogenes, replicate 2 [8]: 92.1308
- Bacterial growth relative to medium, L. monocytogenes, replicate 3 [8]: 85.5096
- Bacterial growth relative to medium, S. epidermidis, replicate 1 [9]: 84.6766
- Bacterial growth relative to medium, S. epidermidis, replicate 2 [9]: 83.7361
- Bacterial growth relative to medium, S. epidermidis, replicate 3 [9]: 92.3812
- Antibacterial activity (in words) ([9]; S. epidermidis DSM 28319, growth after 48 h): limited activity

Sequence: SLLGLLDVVKSKVGQTGLL [LS-AMP-A18]
- Viability of infected cells relative to aprotinin, Replicate 1 [1]: 0.06546
- Viability of infected cells relative to aprotinin, Replicate 2 [1]: 0.04295
- Viability of infected cells relative to aprotinin, Replicate 3 [1]: 0.0512
- Viability of infected cells relative to aprotinin, Replicate 1 (A/Hamburg/05/2009 (H1N1)): 0.03159
- Viability of infected cells relative to aprotinin, Replicate 2 (A/Hamburg/05/2009 (H1N1)): 0.03911
- Viability of infected cells relative to aprotinin, Replicate 3 (A/Hamburg/05/2009 (H1N1)): 0.01637
- Viability of infected cells relative to aprotinin, Replicate 1 (A/Hessen/1/2003 (H3N2)): 0.1207
- Viability of infected cells relative to aprotinin, Replicate 2 (A/Hessen/1/2003 (H3N2)): 0.1378
- Antibacterial activity over the panel (in words) [2]: largely inactive
- Bacterial growth relative to medium, P. aeruginosa (1117), replicate 1 [3]: 87.8796
- Bacterial growth relative to medium, P. aeruginosa (1117), replicate 2 [3]: 68.3606
- Bacterial growth relative to medium, P. aeruginosa (1117), replicate 3 [3]: 68.2151
- Bacterial growth relative to medium, P. aeruginosa (50071), replicate 1 [4]: 102.836
- Bacterial growth relative to medium, P. aeruginosa (50071), replicate 2 [4]: 105.708
- Bacterial growth relative to medium, P. aeruginosa (50071), replicate 3 [4]: 87.0813
- Bacterial growth relative to medium, M. luteus, replicate 1 [5]: 143.237
- Bacterial growth relative to medium, M. luteus, replicate 2 [5]: 115.766
- Bacterial growth relative to medium, M. luteus, replicate 3 [5]: 65.7102
- Bacterial growth relative to medium, S. aureus, replicate 1 [6]: 75
- Bacterial growth relative to medium, S. aureus, replicate 2 [6]: 66.2525
- Bacterial growth relative to medium, S. aureus, replicate 3 [6]: 80.9203
- Bacterial growth relative to medium, E. coli, replicate 1 [7]: 110.572
- Bacterial growth relative to medium, E. coli, replicate 2 [7]: 96.6395
- Bacterial growth relative to medium, E. coli, replicate 3 [7]: 68.0936
- Bacterial growth relative to medium, L. monocytogenes, replicate 1 [8]: 145.215
- Bacterial growth relative to medium, L. monocytogenes, replicate 2 [8]: 105.128
- Bacterial growth relative to medium, L. monocytogenes, replicate 3 [8]: 13.7733
- Bacterial growth relative to medium, S. epidermidis, replicate 1 [9]: 95.0126
- Bacterial growth relative to medium, S. epidermidis, replicate 2 [9]: 84.2348
- Bacterial growth relative to medium, S. epidermidis, replicate 3 [9]: 89.1297
